Laboratory results taken from patent EP4725957A1, “GROUP OF CYCLIC ALKALINE LIPOPEPTIDE COMPOUNDS, AND PREPARATION METHOD THEREFOR AND USE THEREOF” (Institute of Medicinal Biotechnology, Chinese Academy of …, priority 2023, dated 2024).
Values after ≈ are worked out from the molar mass of the structure shown. Where two headings read alike, the source gives them in different places. Bridge positions count the residues as written; N and C are the ends. Square brackets hold non-standard residues; d marks the D form. Peptide text beside a SMILES is read from it. * marks the point of attachment. Heptanoyl(6-Me) = CC(C)CCCCC(=O)*; dOrn = NCCC[C@@H](N)C(=O)O; Nonanoyl = CCCCCCCCC(=O)*; X1 = CC[C@H](C)CCCCC(=O)*; Heptanoyl = CCCCCCC(=O)*; Orn = NCCC[C@H](N)C(=O)O; Dab = NCC[C@H](N)C(=O)O; Dap = NC[C@H](N)C(=O)O

Key:
Format in all cases: cell-based
[1] = Nephrotoxicity assay: in vitro cytotoxicity of HK-2 cells by CCK-8 assay; settings: human, HK-2 cells (human renal), 72 h incubation with drug-containing medium
Summary of the method: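 Compounds in sterile water, diluted to final 500, 250, 200, 100, 50, 25 and 12.5 µg/mL, were applied for 72 h to human HK-2 kidney cells. Absorbance at 450 nm after 3 h CCK-8 gave viability against untreated wells, and IC50 came from logarithmic regression; three replicates.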

[2] = tested on: Escherichia coli ATCC BAA-2340 (KPC)
Summary of the method: (§1)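 Per CLSI, bacteria at a final (2-4) × 10^5 CFU/mL were exposed in Mueller-Hinton broth to two-fold compound series (final 64 down to 0.03 mg/L). MIC read after 16-20 h at 35-37°C in sealed plates.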

[3] = tested on: Klebsiella pneumoniae ATCC BAA-1705 (KPC)
Summary of the method: as §1

[4] = tested on: Acinetobacter baumannii ABA19-1
Summary of the method: as §1

[5] = tested on: Klebsiella pneumoniae KPN+19-15
Summary of the method: as §1

[6] = tested on: Escherichia coli ATCC BAA-2523
Summary of the method: as §1

[7] = tested on: Pseudomonas aeruginosa ATCC 27853
Summary of the method: as §1

[8] = tested on: Acinetobacter baumannii NCTC 13304 (OXA-27)
Summary of the method: as §1

[9] = tested on: Pseudomonas aeruginosa PAE19-3
Summary of the method: as §1

Row | Compound | IC50 at 72 h [1] [µg/mL] | MIC ([2]; ATCC BAA-2340) [µg/mL] | MIC ([3]; ATCC BAA-1705) [µg/mL] | MIC ([4]; ABA19-1) [µg/mL] | MIC ([5]; KPN+19-15) [µg/mL] | MIC ([6]; ATCC BAA-2523) [µg/mL] | MIC ([7]; ATCC 27853) [µg/mL] | MIC ([8]; NCTC 13304) [µg/mL] | MIC ([9]; PAE19-3) [µg/mL] | MIC ([2]; Escherichia coli ATCC BAA-2340 (KPC)) [µg/mL] | MIC ([3]; Klebsiella pneumoniae ATCC BAA-1705 (KPC)) [µg/mL] | MIC ([4]; Acinetobacter baumannii ABA19-1) [µg/mL] | MIC ([5]; Klebsiella pneumoniae KPN 19-15) [µg/mL] | MIC ([6]; Escherichia coli ATCC BAA-2523) [µg/mL] | MIC ([7]; Pseudomonas aeruginosa ATCC27853) [µg/mL] | MIC ([8]; Acinetobacter baumannii NCTC 13304 (OXA-27)) [µg/mL] | MIC ([9]; Pseudomonas aeruginosa PAE19-3) [µg/mL]
1 | CCCCCCC(=O)N[C@@H](CCN)C(=O)N[C@H](C(=O)N[C@H](CCCN)C(=O)N[C@H]1CCNC(=O)[C@H]([C@@H](C)O)NC(=O)[C@H](CCN)NC(=O)[C@H](CCN)NC(=O)[C@H]([C@@H](C)O)NC(=O)[C@@H](Cc2ccccc2)NC(=O)[C@H](CCN)NC1=O)[C@@H](C)O [Compound 24, Heptanoyl-Dab-Thr-D-Orn-ring(4-10)[Dab-Dab-D-Phe-Thr-Dab-Dab-Thr]] (Heptanoyl-[Dab]T[dOrn][Dab][Dab][dF]T[Dab][Dab]T; lactam 4-C) | > 500 | ≤0.03 | 0.06 (≈ 0.051 µM) | 0.125 (≈ 0.106 µM) | 0.125 (≈ 0.106 µM) | ≤0.03 | 0.5 (≈ 0.425 µM) | 0.06 (≈ 0.051 µM) | 2 (≈ 1.7 µM) |  |  |  |  |  |  |  | 
2 | CC(C)CCCCC(=O)N[C@@H](CN)C(=O)N[C@H](C(=O)N[C@H](CO)C(=O)N[C@H]1CCNC(=O)[C@H]([C@@H](C)O)NC(=O)[C@H](CCN)NC(=O)[C@H](CCN)NC(=O)[C@H]([C@@H](C)O)NC(=O)[C@@H](Cc2ccccc2)NC(=O)[C@H](CCN)NC1=O)[C@@H](C)O [Compound 52, 6-methylheptanoyl-Dap-Thr-D-Ser-ring(4-10)[Dab-Dab-D-Phe-Thr-Dab-Dab-Thr]] ({Heptanoyl(6-Me)}-[Dap]T[dS][Dab][Dab][dF]T[Dab][Dab]T; lactam 4-C) | > 500 | ≤0.03 | 0.25 (≈ 0.217 µM) | 0.25 (≈ 0.217 µM) | 0.5 (≈ 0.435 µM) | ≤0.03 | 64 (≈ 55.6 µM) | 0.25 (≈ 0.217 µM) | 4 (≈ 3.48 µM) |  |  |  |  |  |  |  | 
3 | CCCCCCC(=O)N[C@@H](CCN)C(=O)N[C@H](C(=O)N[C@@H](CCN)C(=O)N[C@H]1CCNC(=O)[C@H]([C@@H](C)O)NC(=O)[C@H](CCN)NC(=O)[C@H](CCN)NC(=O)[C@H]([C@@H](C)O)NC(=O)[C@@H](Cc2ccccc2)NC(=O)[C@H](CCN)NC1=O)[C@@H](C)O [Compound 19, Heptanoyl-Dab-Thr-Dab-ring(4-10)[Dab-Dab-D-Phe-Thr-Dab-Dab-Thr]] (Heptanoyl-[Dab]T[Dab][Dab][Dab][dF]T[Dab][Dab]T; lactam 4-C) | > 500 | 0.03 (≈ 0.0258 µM) | 0.06 (≈ 0.0516 µM) | 0.5 (≈ 0.43 µM) | 0.03 (≈ 0.0258 µM) | 0.03 (≈ 0.0258 µM) | 2 (≈ 1.72 µM) | 0.25 (≈ 0.215 µM) | 2 (≈ 1.72 µM) |  |  |  |  |  |  |  | 
4 | CC[C@H](C)CCCCC(=O)N[C@@H](CCN)C(=O)N[C@H](C(=O)N[C@H](CO)C(=O)N[C@H]1CCNC(=O)[C@H]([C@@H](C)O)NC(=O)[C@H](CCN)NC(=O)[C@H](CCN)NC(=O)[C@H]([C@@H](C)O)NC(=O)[C@@H](Cc2ccccc2)NC(=O)[C@H](CN)NC1=O)[C@@H](C)O [Compound 61, (S)-6-methyloctanoyl-Dab-Thr-D-Ser-ring(4-10)[Dab-Dap-D-Phe-Thr-Dab-Dab-Thr]] (X1-[Dab]T[dS][Dab][Dap][dF]T[Dab][Dab]T; lactam 4-C) | > 500 |  |  |  |  |  |  |  |  | 0.06 (≈ 0.0515 µM) | 0.25 (≈ 0.215 µM) | 0.25 (≈ 0.215 µM) | 0.5 (≈ 0.429 µM) | 0.06 (≈ 0.0515 µM) | 64 (≈ 55 µM) | 0.25 (≈ 0.215 µM) | 4 (≈ 3.44 µM)
5 | CCCCCCCCC(=O)N[C@@H](CCN)C(=O)N[C@H](C(=O)N[C@H](CO)C(=O)N[C@H]1CCNC(=O)[C@H]([C@@H](C)O)NC(=O)[C@H](CN)NC(=O)[C@H](CCN)NC(=O)[C@H]([C@@H](C)O)NC(=O)[C@@H](Cc2ccccc2)NC(=O)[C@H](CCN)NC1=O)[C@@H](C)O [Compound 85, Nonanoyl-Dab-Thr-D-Ser-ring(4-10)[Dab-Dab-D-Phe-Thr-Dab-Dap-Thr]] (Nonanoyl-[Dab]T[dS][Dab][Dab][dF]T[Dab][Dap]T; lactam 4-C) | 357 ± 28.8 (≈ 307 µM) | 0.25 (≈ 0.215 µM) | 0.25 (≈ 0.215 µM) | 0.06 (≈ 0.0515 µM) | 0.5 (≈ 0.429 µM) | 0.25 (≈ 0.215 µM) | >64 | 0.03 (≈ 0.0258 µM) | 64 (≈ 55 µM) |  |  |  |  |  |  |  | 
6 | CCCCCCC(=O)N[C@@H](CCN)C(=O)N[C@H](C(=O)N[C@H](CO)C(=O)N[C@H]1CCNC(=O)[C@H]([C@@H](C)O)NC(=O)[C@H](CCN)NC(=O)[C@H](CCCN)NC(=O)[C@H]([C@@H](C)O)NC(=O)[C@@H](Cc2ccccc2)NC(=O)[C@H](CCN)NC1=O)[C@@H](C)O [Compound 79, Heptanoyl-Dab-Thr-D-Ser-ring(4-10)[Dab-Dab-D-Phe-Thr-Orn-Dab-Thr]] (Heptanoyl-[Dab]T[dS][Dab][Dab][dF]T[Orn][Dab]T; lactam 4-C) | > 500 | 0.03 (≈ 0.0258 µM) | 0.25 (≈ 0.215 µM) | 0.06 (≈ 0.0515 µM) | 0.5 (≈ 0.429 µM) | 0.03 (≈ 0.0258 µM) | >64 | 0.03 (≈ 0.0258 µM) | 64 (≈ 55 µM) |  |  |  |  |  |  |  | 
